Source: patent US7351728B2, “Oxazolyl-aryloxyacetic acid derivatives and their use as PPAR agonists” (Eli Lilly and Company, priority 2003, dated 2008)

How the values were obtained:
huPPARγ [1] = target: T1, huPPARγ (Homo sapiens, UniProt P37231); assay: DNA-dependent binding (ABCD binding), SPA, tritium-labeled PPARγ agonist radioligand; details: displacement of tritium-labeled PPARγ agonist
T1 sequence (P37231 1-505): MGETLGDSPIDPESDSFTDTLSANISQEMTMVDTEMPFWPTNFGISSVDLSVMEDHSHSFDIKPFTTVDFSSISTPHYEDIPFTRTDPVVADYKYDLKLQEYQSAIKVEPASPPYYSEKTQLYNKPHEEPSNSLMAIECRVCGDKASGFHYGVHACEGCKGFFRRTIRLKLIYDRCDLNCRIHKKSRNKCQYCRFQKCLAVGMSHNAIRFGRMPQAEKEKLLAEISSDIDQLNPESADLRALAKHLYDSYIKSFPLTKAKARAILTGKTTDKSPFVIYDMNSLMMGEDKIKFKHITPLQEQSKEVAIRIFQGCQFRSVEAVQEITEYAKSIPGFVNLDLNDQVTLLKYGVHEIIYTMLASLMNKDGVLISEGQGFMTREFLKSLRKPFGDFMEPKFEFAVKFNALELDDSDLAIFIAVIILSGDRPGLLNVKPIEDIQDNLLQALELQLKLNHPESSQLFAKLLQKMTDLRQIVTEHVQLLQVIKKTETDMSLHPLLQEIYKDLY
T1 sequence (P19793 1-462 partner): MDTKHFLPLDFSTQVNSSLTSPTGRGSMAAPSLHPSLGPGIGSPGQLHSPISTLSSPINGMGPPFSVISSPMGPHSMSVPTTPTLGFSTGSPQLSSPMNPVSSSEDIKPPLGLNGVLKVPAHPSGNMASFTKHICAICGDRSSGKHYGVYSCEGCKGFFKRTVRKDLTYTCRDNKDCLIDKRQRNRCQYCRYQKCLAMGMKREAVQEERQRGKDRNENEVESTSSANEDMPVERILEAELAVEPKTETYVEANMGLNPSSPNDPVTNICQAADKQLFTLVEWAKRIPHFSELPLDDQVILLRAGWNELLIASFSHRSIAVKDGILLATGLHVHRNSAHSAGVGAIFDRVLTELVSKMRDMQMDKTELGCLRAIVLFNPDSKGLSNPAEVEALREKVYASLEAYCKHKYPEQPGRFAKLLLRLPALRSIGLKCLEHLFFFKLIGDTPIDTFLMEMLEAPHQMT
Description: (§1) DNA-dependent binding (ABCD binding) was carried out using SPA technology with PPAR receptors. Tritium-labeled PPARα and PPARγ agonists were used as radioligands for generating displacement curves and IC50 values with compounds of the invention. Cotransfection assays were carried out in CV-1 cells. The reporter plasmid contained an acylCoA oxidase (AOX) PPRE and TK promoter upstream of the luciferase reporter cDNA. Appropriate PPARs and RXRα were constitutively expressed using plasmids containing the CMV promoter. […] In order to eliminate such interference, a GAL4 chimeric system was used in which the DNA binding domain of the transfected PPAR was replaced by that of GAL4, and the GAL4 response element was utilized in place of the AOX PPRE. Cotransfection efficacy was determined relative to PPARα agonist and PPARγ agonist reference molecules. Efficacies were determined by computer fit to a concentration-response curve, or in some cases at a single high concentration of agonist (10 μM). For binding or cotransfection studies with receptors other than PPARs, similar assays were carried out using appropriate ligands, receptors, reporter constructs, etc., for that particular receptor.
(§2) These studies were carried out to evaluate the ability of compounds of the invention to bind to and/or activate various nuclear transcription factors, particularly huPPARα (“hu” indicates “human”) and huPPARγ. These studies provide in vitro data concerning efficacy and selectivity of compounds of the invention. Furthermore, binding and cotransfection data for compounds of the invention were compared with corresponding data for marketed compounds that act on either huPPARα or huPPARγ.
(§3) Binding and cotransfection data for representative compounds of the invention are compared with corresponding data for reference compounds in Table II.

huPPARα = assay: Cotransfection assay in CV-1 cells, luciferase reporter (GAL4 chimeric system); format: cell-based, human; details: cotransfection efficacy relative to PPARα agonist reference molecule
Description: as §1, §2, §3

huPPARγ [2] = target: T1, huPPARγ; assay: Cotransfection assay in CV-1 cells, AOX PPRE luciferase reporter; format: cell-based; set-up: expressed in transfected cells; host or cells: CV-1 cells; details: cotransfection efficacy relative to PPARγ agonist reference molecule, read-out: huPPARγ CTF Eff. (%)
Description: as §1, §2, §3

Row | IC50 (huPPARγ [1]) [nM] | Emax (huPPARγ [2]) [%] | Compound | huPPARα CTF Eff. (%) (huPPARα)
1 | 2130 | 69 | Cc1oc(-c2ccccc2)nc1CCOc1ccc(OC(C)(C)C(=O)O)cc1 [Example 1, 2-Methyl-2-{4-[2-(5-methyl-2-phenyloxazol-4-yl)ethoxy]phenoxy}propionic acid] | 72
2 | 180 | 60 | Cc1oc(-c2cccc(Br)c2)nc1CCOc1ccc(OC(C)(C)C(=O)O)cc1 [Example 9A, 2-(4-{2-[2-(3-Bromophenyl)-5-methyloxazol-4-yl]ethoxy}phenoxy)-2-methylpropionic acid] | 82
3 | 219 | 66 | CCc1cccc(-c2nc(CCOc3ccc(OC(C)(C)C(=O)O)cc3)c(C)o2)c1 [Example 12, 2-(4-{2-[2-(3-Ethylphenyl)-5-methyloxazol-4-yl]ethoxy}phenoxy)-2-methylpropionic acid] | 68
4 | 102 | 170 | Cc1oc(-c2cccc(CCc3ccccc3)c2)nc1CCOc1ccc(OC(C)(C)C(=O)O)cc1 [Example 12A, 2-Methyl-2-(4-{2-[5-methyl-2-(3-phenethylphenyl)oxazol-4-yl]ethoxy}phenoxy)-propionic acid] | 74
5 | 420 | 109 | CCc1ccc(-c2nc(CCOc3ccc(OC(C)(C)C(=O)O)cc3)c(C)o2)cc1 [Example 13, 2-(4-{2-[2-(4-Ethylphenyl)-5-methyloxazol-4-yl]ethoxy}phenoxy)-2-methylpropionic acid] | 73
6 | 627 | 85 | Cc1oc(-c2ccc(OC3CCCCC3)cc2)nc1CCOc1ccc(OC(C)(C)C(=O)O)cc1 [Example 21, 2-(4-{2-[2-(4-Cyclohexyloxy-phenyl)-5-methyl-oxazol-4-yl]-ethoxy}-phenoxy)-2-methyl-propionic acid] | 78
7 | 239 | 94 | Cc1cc(OCCc2nc(-c3ccccc3)oc2C)ccc1OC(C)(C)C(=O)O [Example 24, 2-Methyl-2-{2-methyl-4-[2-(5-methyl-2-phenyloxazol-4-yl)ethoxy]phenoxy}propionic acid] | 73
8 | 1150 | 52 | CCCc1cc(OCCc2nc(-c3ccccc3)oc2C)ccc1OCC(=O)O [Example 26, {4-[2-(5-methyl-2-phenyl-oxazol-4-yl)ethoxy]-2-propylphenoxy}acetic acid] | 35
9 | 102 | 74 | CCCc1cc(OCCc2nc(-c3ccccc3)oc2C)ccc1OC(C)(C)C(=O)O [Example 26A, 2-Methyl-2-{4-[2-(5-methyl-2-phenyloxazol-4-yl)ethoxy]-2-propylphenoxy}propionic acid] | 75
10 | 49 | 63 | CCCc1cc(OC(C)(C)C(=O)O)ccc1OCCc1nc(-c2ccccc2)oc1C [Example 27A, 2-Methyl-2-{4-[2-(5-methyl-2-phenyloxazol-4-yl)ethoxy]-3-propylphenoxy}propionic acid] | 95
11 | 78 | 92 | CCc1cc(OCCc2nc(-c3ccccc3)oc2C)ccc1OC(C)(C)C(=O)O [Example 30A, 2-{2-Ethyl-4-[2-(5-methyl-2-phenyloxazol-4-yl)ethoxy]phenoxy}2-methylpropionic acid] | 80
12 | 148 | 63 | Cc1oc(-c2ccccc2)nc1CCOc1ccc(OC(C)(C)C(=O)O)c(CC(C)C)c1 [Example 30C, 2-{2-Isobutyl-4-[2-(5-methyl-2-phenyloxazol-4-yl)ethoxy]phenoxy}-2-methylpropionic acid] | 67
13 | 83 | 50 | Cc1oc(-c2ccccc2)nc1CCOc1ccc(OC(C)(C)C(=O)O)c(CCc2ccccc2)c1 [Example 30J, 2-Methyl-2-{4-[2-(5-methyl-2-phenyloxazol-4-yl)ethoxy]-2-phenethylphenoxy}propionic acid] | 90
14 | 10 | 51 | CCCCc1cc(OC(C)(C)C(=O)O)ccc1OCCc1nc(-c2ccccc2)oc1C [Example 31F, 2-{3-Butyl-4-[2-(5-methyl-2-phenyloxazol-4-yl)ethoxy]phenoxy}-2-methylpropionic acid] | 70
15 | 42 | 80 | Cc1oc(-c2ccccc2)nc1CCOc1ccc(OC(C)(C)C(=O)O)c(Cc2ccccc2)c1 [Example 32, 2-{2-Benzyl-4-[2-(5-methyl-2-phenyloxazol-4-yl)ethoxy]phenoxy}-2-methylpropionic acid] | 82
16 | 172 | 60 | Cc1oc(-c2ccccc2)nc1CCOc1ccc(OC(C)(C)C(=O)O)c2ccccc12 [Example 37, 2-Methyl-2-{4-[2-(5-methyl-2-phenyl-oxazol-4-yl)-ethoxy]-naphthalen-1-yloxy}-propionic acid] | 91
17 | 81 | 65 | Cc1oc(-c2ccccc2)nc1CCOc1ccc(OC(C)(C)C(=O)O)c2c1CCCC2 [Example 38, 2-Methyl-2-{4-[2-(5-methyl-2-phenyl-oxazol-4-yl)-ethoxy]-5,6,7,8-tetrahydro-naphthalen-1-yloxy}-propionic acid] | 80
